Where two headings read alike, the source gives them in different places.
Key:
[1] = system: CV-1 cells; test: selective killing assay, colony number reduced to 50% of control, normal monkey kidney epithelial cell line CV-1; assay type: cell-based; details: 24 hours treatment; for IC50: Primates
Excerpt: (§1) The control received culture media only.

[2] = system: CRL 1420 cells; test: colony assay of Example 1 with human pancreatic carcinoma CRL 1420 cell line; assay type: cell-based; details: for Selectivity: CV-1/CRL-1420; for CRL-1420(IC50) / IC50: Table VII, human pancreatic carcinoma, 24 hours treatment; for IC50: Homo sapiens, 24 h;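 for all read-outs here: colony formation assay, cells exposed for 24 h then regrown 7 to 10 days without compound, colonies stained with crystal violet, control given medium alone, normal reference CV-1 monkey kidney epithelial cells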
Procedure: (§2) Human colon carcinoma cell line CX-1 or normal monkey kidney epithelial cell line CV-1 was chosen as representatives of cancer cells and normal cells, respectively. […] CX-1 cells (2,000 cells/well) and CV-1 cells (1,000 cells/well) were plated in 24-well plastic culture plates. […] The control received culture media only. Cells were treated with compounds of General Formulas (I) to (V) at 37° C. for 24 hours. After rinsing with fresh culture medium three times, the cells were further incubated at 37° C. for 7 to 10 days. Cell colonies were fixed and stained with 2% crystal violet in 70% ethanol for 10 minutes and rinsed in water. […] The selectivity is defined as the ratio of IC50 for CV-1 and IC50 for CX-1.

[3] = system: human melanoma LOX; test: survival of nude mice implanted with human melanoma LOX; assay type: in vivo, male athymic Swiss nu/nu mouse (human tumor); details: for response vs control in vivo at 3 mg/kg: 3 mg/kg i.p. on day 1, 4, 8, 10, 12
Procedure: LOX, a human melanoma cell line, grown subcutaneously in nude mice was excised, trypsinized to yield a single cell suspension using a metal grid with a […] mesh. […] Five million viable trypan blue negative cells made up in 0.1 ml of Dulbecco modified Eagle medium (DMFE) were injected into the peritoneal cavity of a male athymic Swiss nu/nu mouse. The control group and each treatment group consisted of 5 to 10 mice. Treatment was commenced the following day by intraperitoneal injection.
Ten control mice received 0.25 ml of 2% dextrose on these days the treated groups were injected with the compounds of this invention. […] T/C is the ratio, expressed as a percentage of the mean survival age of the treated group to the mean survival age of the untreated control group.

[4] = system: EJ cells; test: colony assay of Example 1 with human bladder carcinoma EJ cell line; assay type: cell-based; details: for Selectivity: CV-1/EJ; for EJ (IC50) / IC50: Table IV, human bladder carcinoma, 24 hours treatment; for IC50: Homo sapiens, EJ, 24 h;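 for all read-outs here: colony formation assay with 24 h compound exposure at 37 °C, then 7–10 days drug-free regrowth, colonies stained with crystal violet, controls given medium alone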
[5] = system: LOX cells; test: colony assay of Example 1 with human melanoma LOX cell line; assay type: cell-based; details: for Selectivity: CV-1/LOX; for LOX(IC50) / IC50: Table V, human melanoma, 24 hours treatment; for IC50: Homo sapiens, LOX, 24 h;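 for all read-outs here: colony formation assay with 24 h exposure at 37 °C, then 7 to 10 days of regrowth, crystal violet staining of colonies, control wells given medium alone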
Procedure: as §2

[6] = system: CX-1 cells; test: selective killing assay, colony number reduced to 50% of control, human colon carcinoma cell line CX-1; assay type: cell-based; details: for Selectivity (ratio of IC50 for CV-1 and IC50 for CX-1): CV-1/CX-1; for CX-1 (IC50) / IC50: human colon carcinoma, 24 hours treatment, colony count after 7 to 10 days;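 for all read-outs here: colonies stained with crystal violet and counted, control cells given medium alone, exposure at 37 °C, normal monkey kidney epithelial CV-1 cells as the non-cancer comparator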
Procedure: as §2

[7] = system: MCF-7 cells; test: colony assay of Example 1 with human breast carcinoma MCF-7 cell line; assay type: cell-based; details: for Selectivity: CV-1/MCF-7; for IC50: Homo sapiens, MCF7, 24 h, Table VI, human breast carcinoma, 24 hours treatment
Excerpt: as §1

[8] = Table III, normal monkey kidney epithelial cells, colony count after 7 to 10 days
[9] = 5 mg/kg i.p. on day 1, 4, 8, 11
[10] = CV-1, Table III, normal monkey kidney epithelial cells, colony count after 7 to 10 days
[11] = Mus musculus, ip, 24 h, read-out: T/C

SMILES | IC50 [2] | IC50 [4] | IC50 [5] | IC50 [7] | Selectivity [2] | Selectivity [4] | Selectivity [5] | Selectivity (ratio of IC50 for CV-1 and IC50 for CX-1) [6] | IC50 ([1]; CV-1, 24 h, Table IV) | IC50 ([1]; CV-1, 24 h, Table V) | IC50 ([1]; CV-1, 24 h, Table VI) | IC50 ([1]; CV-1, 24 h, Table VII) | IC50 [1, 10] | Selectivity [7] | IC50 ([6]; Homo sapiens, CX-1, Table III) | other results
CCn1c(=Cc2oc3ccccc3[n+]2C)sc(=C2Sc3ccccc3N2C)c1=O [Compound 14] | – | – | – | – | 400 | 400 | > 300 | 667 | – | – | – | – | – | – | – | CV-1 (IC50) [1, 8]: 20 µg/mL; CV-1 (IC50) ([1]; Table IV): 20 µg/mL; CV-1 (IC50) ([1]; Table V): > 30 µg/mL; CV-1 (IC50) ([1]; Table VII): 20 µg/mL; CRL-1420(IC50) [2]: 0.05 µg/mL; T/C [3, 9]: 147%; EJ (IC50) [4]: 0.05 µg/mL; LOX(IC50) [5]: < 0.1 µg/mL; CX-1 (IC50) ([6]; Table III): 0.03 µg/mL
CCn1c(=Cc2oc3ccccc3[n+]2C)sc(=C2Sc3ccccc3N2C)c1=O [Compound 15] | – | – | – | – | 500 | 100 | 286 | 1000 | – | – | – | – | – | – | – | CV-1 (IC50) [1, 8]: 20 µg/mL; CV-1 (IC50) ([1]; Table IV): 20 µg/mL; CV-1 (IC50) ([1]; Table V): 20 µg/mL; CV-1 (IC50) ([1]; Table VII): 20 µg/mL; CRL-1420(IC50) [2]: 0.04 µg/mL; T/C [3, 9]: 163%; EJ (IC50) [4]: 0.2 µg/mL; LOX(IC50) [5]: 0.07 µg/mL; CX-1 (IC50) ([6]; Table III): 0.02 µg/mL
CCn1c(=Cc2oc3c4ccccc4ccc3[n+]2CC)sc(=C2Sc3ccc4ccccc4c3N2C)c1=O [Compound 85] | 0.01 µg/mL | 0.007 µg/mL | < 0.01 µg/mL | – | 600 | 857 | > 600 | 750 | – | – | – | – | 6 µg/mL | – | 0.008 µg/mL | response vs control in vivo at 5 mg/kg ([3]; Mus musculus, ip, 24 h, 5 mg/kg i.p. on day 1, 4, 8, 11, 15, read-out: T/C): 174%
CCn1c(=Cc2sc3ccc4ccccc4c3[n+]2CC)sc(=C2Oc3ccc4ccccc4c3N2C)c1=O [Compound 116] | – | – | – | 0.04 µg/mL | – | – | – | – | – | – | 6 µg/mL | – | – | 150 | – | –
CCn1c(=Cc2sc3c4ccccc4ccc3[n+]2CC)sc(=C2Sc3ccc4ccccc4c3N2C)c1=O [Compound 204] | – | – | – | – | 500 | – | 222 | 667 | – | – | – | – | – | – | – | CV-1 (IC50) [1, 8]: 20 µg/mL; CV-1 (IC50) ([1]; Table V): 20 µg/mL; CV-1 (IC50) ([1]; Table VII): 20 µg/mL; CRL-1420(IC50) [2]: 0.04 µg/mL; response vs control in vivo at 10 mg/kg ([3]; Mus musculus, ip, 24 h, 10 mg/kg i.p. on day 1, 4, 8, 10, 12, read-out: T/C): > 270%; LOX(IC50) [5]: 0.09 µg/mL; CX-1 (IC50) ([6]; Table III): 0.03 µg/mL
CCn1c(=Cc2sc3ccc4ccccc4c3[n+]2CC)sc(=C2SCCN2C)c1=O [Compound 224] | – | – | 0.1 µg/mL | 0.1 µg/mL | – | – | 200 | 250 | – | 20 µg/mL | 20 µg/mL | – | 20 µg/mL | 200 | – | response vs control in vivo at 3 mg/kg [3, 11]: 161%; IC50 ([6]; CX-1, Table III): 0.08 µg/mL
CCn1c(=Cc2oc3cc4ccccc4cc3[n+]2CC)sc(=C2C=Cc3ccccc3N2C)c1=O [Compound 227] | 0.05 µg/mL | 0.05 µg/mL | 0.03 µg/mL | 0.05 µg/mL | 160 | 160 | 267 | 100 | 8 µg/mL | 8 µg/mL | 8 µg/mL | 8 µg/mL | 8 µg/mL | 160 | 0.08 µg/mL | –
CCn1c(=Cc2oc3ccc4ccccc4c3[n+]2CC)sc(=C2Oc3c(ccc4ccccc34)N2C)c1=O [Compound 253] | 0.03 µg/mL | 0.02 µg/mL | 0.005 µg/mL | 0.03 µg/mL | 200 | 300 | 1200 | 120 | 6 µg/mL | 6 µg/mL | 6 µg/mL | 6 µg/mL | 6 µg/mL | 200 | 0.05 µg/mL | –
CCn1c(=Cc2oc3c4ccccc4ccc3[n+]2CC)sc(=C2Oc3ccc4ccccc4c3N2C)c1=O [Compound 254] | 0.005 µg/mL | 0.01 µg/mL | 0.005 µg/mL | 0.03 µg/mL | 1200 | 600 | 1200 | 120 | 6 µg/mL | 6 µg/mL | 6 µg/mL | 6 µg/mL | – | 200 | – | CX-1 (IC50) ([6]; Table III): 0.05 µg/mL
CCn1c(=Cc2oc3c4ccccc4ccc3[n+]2CC)sc(=C2Sc3ccc4ccccc4c3N2C)c1=O [Compound 315] | – | – | – | 0.05 µg/mL | 4000 | 4000 | 4000 | – | – | – | 20 µg/mL | – | – | 400 | – | CRL-1420(IC50) [2]: 0.005 µg/mL; EJ (IC50) [4]: 0.005 µg/mL; LOX(IC50) [5]: 0.005 µg/mL

More lines, main results first:

IC50 [2] | IC50 [4] | IC50 [5] | IC50 [7] | SMILES | Selectivity [2] | Selectivity [4] | Selectivity [5] | Selectivity (ratio of IC50 for CV-1 and IC50 for CX-1) [6] | IC50 ([1]; CV-1, 24 h, Table IV) | IC50 ([1]; CV-1, 24 h, Table V) | IC50 ([1]; CV-1, 24 h, Table VI) | IC50 ([1]; CV-1, 24 h, Table VII) | IC50 [1, 10] | Selectivity [7] | IC50 ([6]; Homo sapiens, CX-1, Table III) | other results
0.02 µg/mL | 0.05 µg/mL | 0.03 µg/mL | 0.05 µg/mL | CCn1c(=C2CC[n+]3c2sc2ccccc23)sc(=C2Sc3ccccc3N2C)c1=O [Compound 29] | 500 | 200 | 333 | 333 | 10 µg/mL | 10 µg/mL | 10 µg/mL | 10 µg/mL | 10 µg/mL | 200 | 0.03 µg/mL | –
– | 0.02 µg/mL | 0.04 µg/mL | 0.04 µg/mL | CCn1c(=Cc2sc3c4ccccc4ccc3[n+]2CC)sc(=C2Sc3ccccc3N2C)c1=O [Compound 31] | – | 500 | 250 | 333 | 10 µg/mL | 10 µg/mL | 10 µg/mL | – | 10 µg/mL | 250 | 0.03 µg/mL | response vs control in vivo at 5 mg/kg ([3]; Mus musculus, ip, 24 h, 5 mg/kg i.p. on day 1, 4, 8, 11, read-out: T/C): 153%
0.09 µg/mL | – | 0.04 µg/mL | 0.1 µg/mL | CCn1c(=CC2=[N+](CC)CCS2)sc(=C2Oc3ccc4ccccc4c3N2C)c1=O [Compound 215] | 222 | – | 500 | 200 | – | 20 µg/mL | 20 µg/mL | 20 µg/mL | 10 µg/mL | 200 | 0.05 µg/mL | response vs control in vivo at 3 mg/kg [3, 11]: 167%
0.005 µg/mL | 0.005 µg/mL | 0.005 µg/mL | – | CCn1c(=Cc2sc3ccccc3[n+]2CC)sc(=C2Sc3ccc4ccccc4c3N2C)c1=O [Compound 310] | 400 | 400 | 400 | – | 2 µg/mL | 2 µg/mL | – | 2 µg/mL | – | – | – | response vs control in vivo at 8 mg/kg ([3]; Mus musculus, ip, 24 h, 8 mg/kg i.p. on day 1, 3, 4, 6, 8, 10, read-out: T/C): 206%
– | 0.03 µg/mL | 0.01 µg/mL | 0.05 µg/mL | CCn1c(=Cc2oc3ccc4ccccc4c3[n+]2CC)sc(=C2Sc3ccccc3N2C)c1=O [Compound 337] | – | 267 | 800 | 100 | 8 µg/mL | 8 µg/mL | 8 µg/mL | – | 8 µg/mL | 160 | 0.08 µg/mL | response vs control in vivo at 5 mg/kg ([3]; Mus musculus, ip, 24 h, 5 mg/kg i.p. on day 1, 3, 4, 6, 8, 10, 13, read-out: T/C): 137%
– | – | – | 0.1 µg/mL | CCn1c(=CC2=[N+](CC)CCS2)sc(=C2SC3=C(CCCC3)N2C)c1=O [Compound 340] | – | – | – | – | – | – | 20 µg/mL | – | – | 200 | – | response vs control in vivo at 8 mg/kg ([3]; Mus musculus, ip, 24 h, 8 mg/kg i.p. on day 1, 3, 8, 13, read-out: T/C): 194%

— patent US5360803A, “Composition and method for treating cancer” (Dan Farber Cancer Institute, priority 1992, dated 1994)
